Columns and labels:
[1] = test system: NAHA activity from Stachybotrys chartarum; assay: NAHA activity assay, Stachybotrys chartarum; type: biochemical
Method: (§1) In order to determine NAHA activity in different samples, the technology in WO 98/033934 was employed: A sample containing a dried or freeze dried organism is added to a buffer solution containing 4-Methylumbelliferyl N-acetyl-β-D-glucosaminide in a concentration of 20 μM. The reaction-time is varied depending on the ambient temperature and according to a reaction-time/temperature data sheet previously developed for fungal NAHA activity at various temperatures, and is 30 minutes at 23° C. The resulting fluorescence formed during the reaction time is monitored in a calibrated fluorometer.
(§2) Experiments were conducted where varying concentrations of AgNO3 was added to an analysis substrate. Furthermore, the experiments where performed on dried or freeze dried materials where both intact and fragmented cells are to be expected to be present.
(§3) Experiments analogous to those in example 1 were carried out, but instead of using non-specific inhibitors, the effect of different concentrations of DNJNAc on the NAHA activity in various biomass containing samples was investigated.

[2] = test system: NAHA activity from Dermatophagoides pteronyssinus (Dust mite); assay: NAHA activity assay, dust mite; type: biochemical; conditions: Dermatophagoides pteronyssinus (House dust mite)
Method: as §1, §2, §3

[3] = test system: NAHA activity from Penicillium commune; assay: NAHA activity assay, Penicillium commune; type: biochemical
Method: as §1, §3

non-fungal NAHA activity = assay: NAHA activity assay, non-fungal sources overall; type: biochemical
Method: as §1, §2, §3

[4] = test system: NAHA activity from Human skin cells; assay: NAHA activity assay, human skin cells; type: biochemical
Method: as §1, §2, §3

[5] = test system: NAHA activity from Mugworth pollen; assay: NAHA activity assay, mugworth pollen; type: biochemical
Method: as §1, §2, §3

[6] = test system: NAHA activity from Ambrosia psilostachya (Rag weed pollen); assay: NAHA activity assay, rag weed pollen; type: biochemical
Method: as §1, §2, §3

[7] = test system: NAHA activity from Graham-flour; assay: NAHA activity assay (4-methylumbelliferyl N-acetyl-β-D-glucosaminide, fluorescence), Graham-flour; type: biochemical; conditions: Graham Hour
Method: as §1, §2, §3

[8] = test system: NAHA activity from Acremonium spp.; assay: NAHA activity assay, Acremonium spp.; type: biochemical; conditions: Acremonium sp.
Method: as §1, §2, §3

[9] = test system: NAHA activity from Chaetomium globosum; assay: NAHA activity assay, Chaetomium globosum; type: biochemical
Method: as §1, §3

fungal NAHA activity = assay: NAHA activity assay, fungal sources overall; type: biochemical, fungi
Method: as §1, §2, §3
The experiments were performed with whole cell/organism cultures rather than purified enzyme, which is normally used in experiments on specific inhibition. It is plausible, though, that the surprising non-specific inhibition effect observed for Ag^+ and Hg^+ could be due to the inhibitors being delayed in physically contacting the NAHA enzyme in the fungi when compared to other types of biomass.

[10] = test system: NAHA activity from Aspergillus fumigatus freeze dried; assay: NAHA activity assay, Aspergillus fumigatus freeze dried; type: biochemical; conditions: Aspergillus fumigatus (Freeze dried)
Method: as §1, §2, §3

SMILES: CC(=O)N[C@H]1CN[C@H](CO)[C@@H](O)[C@@H]1O [DNJNAc, 2-Acetamido-1,2-dideoxynojirimycin]
- NAHA activity, 0 μM DNJNAc = 100% ([1]; DNJNAc 98 μM): 97%
- NAHA activity, 0 μM DNJNAc = 100% ([1]; DNJNAc 196 μM): 85%
- NAHA activity, 0 μM DNJNAc = 100% ([2]; DNJNAc 24.5 μM): 5%
- NAHA activity, 0 μM DNJNAc = 100% ([2]; DNJNAc 49 μM): 2%
- NAHA activity, 0 μM DNJNAc = 100% ([2]; DNJNAc 98 μM): 1%
- NAHA activity, 0 μM DNJNAc = 100% ([2]; DNJNAc 196 μM): 1%
- NAHA activity, 0 μM DNJNAc = 100% ([3]; DNJNAc 24.5 μM): 76%
- NAHA activity, 0 μM DNJNAc = 100% ([3]; DNJNAc 49 μM): 62%
- NAHA activity, 0 μM DNJNAc = 100% ([3]; DNJNAc 98 μM): 45%
- NAHA activity, 0 μM DNJNAc = 100% ([3]; DNJNAc 196 μM): 22%
- non fungal activity retained, average (non-fungal NAHA activity; 24.5 μM in the assay substrate): 11%
- non-fungal NAHA activity retained, average of the control (non-fungal NAHA activity; 196 μM): 5%
- NAHA activity, 0 μM DNJNAc = 100% ([4]; DNJNAc 24.5 μM): 3%
- NAHA activity, 0 μM DNJNAc = 100% ([4]; DNJNAc 49 μM): 1%
- NAHA activity, 0 μM DNJNAc = 100% ([4]; DNJNAc 98 μM): 1%
- NAHA activity, 0 μM DNJNAc = 100% ([4]; DNJNAc 196 μM): 1%
- NAHA activity, 0 μM DNJNAc = 100% ([5]; DNJNAc 24.5 μM): 8%
- NAHA activity, 0 μM DNJNAc = 100% ([5]; DNJNAc 49 μM): 6%
- NAHA activity, 0 μM DNJNAc = 100% ([5]; DNJNAc 98 μM): 5%
- NAHA activity, 0 μM DNJNAc = 100% ([5]; DNJNAc 196 μM): 4%
- NAHA activity, 0 μM DNJNAc = 100% ([6]; DNJNAc 24.5 μM): 8%
- NAHA activity, 0 μM DNJNAc = 100% ([6]; DNJNAc 49 μM): 6%
- NAHA activity, 0 μM DNJNAc = 100% ([6]; DNJNAc 98 μM): 5%
- NAHA activity, 0 μM DNJNAc = 100% ([6]; DNJNAc 196 μM): 4%
- NAHA activity, 0 μM DNJNAc = 100% ([7]; DNJNAc 24.5 μM): 14%
- NAHA activity, 0 μM DNJNAc = 100% ([7]; DNJNAc 49 μM): 9%
- NAHA activity, 0 μM DNJNAc = 100% ([7]; DNJNAc 98 μM): 6%
- NAHA activity, 0 μM DNJNAc = 100% ([7]; DNJNAc 196 μM): 6%
- NAHA activity, 0 μM DNJNAc = 100% ([8]; DNJNAc 24.5 μM): 99%
- NAHA activity, 0 μM DNJNAc = 100% ([8]; DNJNAc 49 μM): 92%
- NAHA activity, 0 μM DNJNAc = 100% ([8]; DNJNAc 98 μM): 80%
- NAHA activity, 0 μM DNJNAc = 100% ([8]; DNJNAc 196 μM): 76%
- NAHA activity, 0 μM DNJNAc = 100% ([9]; DNJNAc 24.5 μM): 88%
- NAHA activity, 0 μM DNJNAc = 100% ([9]; DNJNAc 49 μM): 91%
- NAHA activity, 0 μM DNJNAc = 100% ([9]; DNJNAc 98 μM): 92%
- NAHA activity, 0 μM DNJNAc = 100% ([9]; DNJNAc 196 μM): 81%
- fungal NAHA activity retained, average (fungal NAHA activity; 24.5 μM in the assay substrate): 83%
- fungal NAHA activity retained, average (fungal NAHA activity; 196 μM): 60%
- NAHA activity, 0 μM DNJNAc = 100% ([10]; DNJNAc 24.5 μM): 114%
- NAHA activity, 0 μM DNJNAc = 100% ([10]; DNJNAc 49 μM): 105%
- NAHA activity, 0 μM DNJNAc = 100% ([10]; DNJNAc 98 μM): 104%
- NAHA activity, 0 μM DNJNAc = 100% ([10]; DNJNAc 196 μM): 96%
